Measured values reported in patent publication US10519169B2, “3-(1H-pyrrolo[2,3-C]pyridin-2-yl)-1 H-pyrazolo[4,3-B]pyridines and therapeutic uses thereof” (Samumed, LLC, priority 2015, dated 2019).

Test system: primary human mesenchymal stem cells (hMSCs)
Experiment: Chondrogenesis induction in hMSCs (chondrogenic nodules)
Assay type: cell-based
Conditions: 144 h, 6 days; for EC50: concentration required to induce 50% levels of chondrogenesis vs TGF-β3, read-out: Conc (nM) of 50% TGF-β3 activity; for Emax: nodules, relative to TGF-β3 positive control (10 ng/mL), read-out: Max. Activity as % TGF-β3 activity
Procedure: Representative compounds were screened using primary human mesenchymal stem cells (hMSCs) to determine their ability to induce chondrogenesis (process by which cartilage is developed).
Primary human mesenchymal stem cells (hMSCs) were purchased from Lonza (Walkersville, Md.) and expanded in Mesenchymal Stem Cell Growth Media (Lonza). Cells between passage 3 and 6 were used for the experiments.
Each compound was dissolved in DMSO as a 10 mM stock and used to prepare compound source plates. Serial dilution (1:3, 6-point dose-response curves from 2700 nM to 10 nM) and compound transfer was performed using the ECHO 550 (Labcyte, Sunnyvale, Calif.) into 96-well clear bottom assay plates (Greiner Bio-One) with appropriate DMSO backfill for a final DMSO concentration of 0.03%. hMSCs were plated at 20,000 cells/well in 250 μL/well Incomplete Chondrogenic Induction Medium (Lonza; DMEM, dexamethasone, ascorbate, insulin-transferrin-selenium [ITS supplement], gentamycin-amphotericin [GA-1000], sodium pyruvate, proline and L-glutamine). TGF-03 (10 ng/mL) was used as a positive control for differentiation while negative control wells were treated with 75 nL DMSO for normalization and calculating EC50 values. Cells were incubated at 37° C. and 5% CO2 for 6 days. To image chondrogenic nodules, the cells were fixed using 4% formaldehyde (Electron Microscopy Sciences), and stained with 2 μg/mL Rhodamine B (Sigma-Aldrich) and 20 μM Nile Red (Sigma-Aldrich) [Johnson K., et. al, A Stem Cell-Based Approach to Cartilage Repair, Science, (2012), 336(6082), 717-721]. The nodules imaged (4 images per well at 4× magnification) by excitation at 531 nm and emission at 625 nm and quantified using the CellInsight CX5 (Thermo Scientific). Number of nodules in each well was normalized to the average of 3 DMSO treated wells on the same plate using Excel (Microsoft Inc.). The normalized averages (fold change over DMSO) of 3 replicate wells for each compound concentration were calculated. Due to solubility limitations of some of the compounds, curve fitting was incomplete leading to inaccurate EC50 determinations.
Using TGF-β3 as a positive control, the concentration of representative compounds required to induce 50% levels of chondrogenesis is reported. In addition, the maximum activity of each compound and the respective dose that each compound reached maximum chondrogenesis activity is reported.

Row | Compound | EC50 [nM] | Emax [%]
1 | Fc1cccc(-c2cncc3[nH]c(-c4n[nH]c5ccc(-c6cccnc6)nc45)cc23)c1 [Compound 4, 3-(4-(3-Fluorophenyl)-1H-pyrrolo[2,3-c]pyridin-2-yl)-5-(pyridin-3-yl)-1H-pyrazolo[4,3-b]pyridine] | 30 | 92
2 | CN(C)c1cncc(-c2ccc3[nH]nc(-c4cc5c(-c6cccc(F)c6)cncc5[nH]4)c3n2)c1 [Compound 7, 5-(3-(4-(3-Fluorophenyl)-1H-pyrrolo[2,3-c]pyridin-2-yl)-1H-pyrazolo[4,3-b]pyridin-5-yl)-N,N-dimethylpyridin-3-amine] | 100 | 85
3 | Fc1cccc(-c2cncc3[nH]c(-c4n[nH]c5ccc(-c6cncc(CN7CCCCC7)c6)nc45)cc23)c1 [Compound 15, 3-(4-(3-Fluorophenyl)-1H-pyrrolo[2,3-c]pyridin-2-yl)-5-(5-(piperidin-1-ylmethyl)pyridin-3-yl)-1H-pyrazolo[4,3-b]pyridine] | 10 | 54
4 | Cc1ccncc1-c1ccc2[nH]nc(-c3cc4c(-c5ccc(F)cc5)cncc4[nH]3)c2n1 [Compound 33, 3-(4-(4-Fluorophenyl)-1H-pyrrolo[2,3-c]pyridin-2-yl)-5-(4-methylpyridin-3-yl)-1H-pyrazolo[4,3-b]pyridine] |  | 28
5 | Fc1ccc(-c2cncc3[nH]c(-c4n[nH]c5ccc(-c6cncc(CN7CCC(F)(F)C7)c6)nc45)cc23)cc1 [Compound 54, 5-(5-((3,3-Difluoropyrrolidin-1-yl)methyl)pyridin-3-yl)-3-(4-(4-fluorophenyl)-1H-pyrrolo[2,3-c]pyridin-2-yl)-1H-pyrazolo[4,3-b]pyridine] | 900 | 194
6 | CN(C)Cc1cncc(-c2ccc3[nH]nc(-c4cc5c(-c6ccccc6F)cncc5[nH]4)c3n2)c1 [Compound 69, 1-(5-(3-(4-(2-Fluorophenyl)-1H-pyrrolo[2,3-c]pyridin-2-yl)-1H-pyrazolo [4,3-b]pyridin-5-yl)pyridin-3-yl)-N,N-dimethylmethanamine] | 30 | 51
7 | Cc1ccncc1-c1ccc2[nH]nc(-c3cc4c(-c5cccnc5)cncc4[nH]3)c2n1 [Compound 89, 5-(4-Methylpyridin-3-yl)-3-(4-(pyridin-3-yl)-1H-pyrrolo[2,3-c]pyridin-2-yl)-1H-pyrazolo[4,3-b]pyridine] | 10 | 149
8 | FC1(F)CCN(Cc2cncc(-c3ccc4[nH]nc(-c5cc6c(-c7cccnc7)cncc6[nH]5)c4n3)c2)C1 [Compound 110, 5-(5-((3,3-Difluoropyrrolidin-1-yl)methyl)pyridin-3-yl)-3-(4-(pyridin-3-yl)-1H-pyrrolo[2,3-c]pyridin-2-yl)-1H-pyrazolo[4,3-b]pyridine] |  | 23
9 | Nc1cncc(-c2ccc3[nH]nc(-c4cc5c(-c6ccncc6)cncc5[nH]4)c3n2)c1 [Compound 115, 5-(3-(4-(Pyridin-4-yl)-1H-pyrrolo[2,3-c]pyridin-2-yl)-1H-pyrazolo[4,3-b]pyridin-5-yl)pyridin-3-amine] | 30 | 53
10 | c1cc(-c2cncc3[nH]c(-c4n[nH]c5ccc(-c6cncc(CN7CCCCC7)c6)nc45)cc23)ccn1 [Compound 127, 5-(5-(Piperidin-1-ylmethyl)pyridin-3-yl)-3-(4-(pyridin-4-yl)-1H-pyrrolo[2,3-c]pyridin-2-yl)-1H-pyrazolo[4,3-b]pyridine] | 10 | 97
11 | O=C(Nc1cncc(-c2ccc3[nH]nc(-c4cc5ccncc5[nH]4)c3n2)c1)C1CCCC1 [Compound 274, N-(5-(3-(1H-Pyrrolo[2,3-c]pyridin-2-yl)-1H-pyrazolo[4,3-b]pyridin-5-yl)pyridin-3-yl)cyclopentanecarboxamide] | 30 | 50
12 | Cc1ccncc1-c1ccc2[nH]nc(-c3cc4c(-c5cc(F)cc(CNS(C)(=O)=O)c5)cncc4[nH]3)c2n1 [Compound 481, N-(3-Fluoro-5-(2-(5-(4-methylpyridin-3-yl)-1H-pyrazolo[4,3-b]pyridin-3-yl)-1H-pyrrolo[2,3-c]pyridin-4-yl)benzyl)methanesulfonamide] | 10 | 87
13 | CS(=O)(=O)NCc1cc(F)cc(-c2cncc3[nH]c(-c4n[nH]c5ccc(-c6cncc(CN7CCCCC7)c6)nc45)cc23)c1 [Compound 491, N-(3-Fluoro-5-(2-(5-(5-(piperidin-1-ylmethyl)pyridin-3-yl)-1H-pyrazolo[4,3-b]pyridin-3-yl)-1H-pyrrolo[2,3-c]pyridin-4-yl)benzyl)methanesulfonamide] | 10 | 83
14 | CS(=O)(=O)NCc1cc(F)cc(-c2cncc3[nH]c(-c4n[nH]c5ccc(-c6cncnc6)nc45)cc23)c1 [Compound 503, N-(3-Fluoro-5-(2-(5-(pyrimidin-5-yl)-1H-pyrazolo[4,3-b]pyridin-3-yl)-1H-pyrrolo[2,3-c]pyridin-4-yl)benzyl)methane sulfonamide] | 10 | 106
15 | CS(=O)(=O)NCc1cc(F)cc(-c2cncc3[nH]c(-c4n[nH]c5ccc(-c6ccccn6)nc45)cc23)c1 [Compound 504, N-(3-Fluoro-5-(2-(5-(pyridin-2-yl)-1H-pyrazolo[4,3-b]pyridin-3-yl)-1H-pyrrolo[2,3-c]pyridin-4-yl)benzyl)methanesulfonamide] | 300 | 99
16 | Fc1cccc(-c2cncc3[nH]c(-c4n[nH]c5ccc(C6CCNCC6)nc45)cc23)c1 [Compound 505, 3-(4-(3-Fluorophenyl)-1H-pyrrolo[2,3-c]pyridin-2-yl)-5-(piperidin-4-yl)-1H-pyrazolo[4,3-b]pyridine] | 2700 | 103
17 | Fc1ccccc1-c1cncc2[nH]c(-c3n[nH]c4ccc(-c5cn[nH]c5)nc34)cc12 [Compound 539, 3-(4-(2-Fluorophenyl)-1H-pyrrolo[2,3-c]pyridin-2-yl)-5-(1H-pyrazol-4-yl)-1H-pyrazolo[4,3-b]pyridine] |  | 40
18 | Cn1cc(-c2ccc3[nH]nc(-c4cc5c(-c6cccnc6)cncc5[nH]4)c3n2)cn1 [Compound 556, 5-(1-Methyl-1H-pyrazol-4-yl)-3-(4-(pyridin-3-yl)-1H-pyrrolo[2,3-c]pyridin-2-yl)-1H-pyrazolo[4,3-b]pyridine] | 10 | 52
